From US20220105157A1, “Compositions and Methods for Promoting Angiogenesis in the Eye” (The Regents of the University of California, priority 2019, published 2022)
Residues, ends and D or L forms follow the SMILES beside them. *: point of attachment. Cbz = O=C(OCc1ccccc1)*; CH2F = FC*

Assays:
[1] = test system: bovine aortic endothelial (BAE) cells; assay: BAE endothelial cell proliferation assay (alamar blue); assay type: cell-based; settings: for rescue of the cell death phenotype induced by LIF: BAE cells, co-incubation with inhibitor; for reversal of LIF-induced growth inhibition in BAE cells: pre-incubation with inhibitor 1 hour, LIF 10 ng/ml, 6 days
Procedure: (§1) The bovine endothelial proliferation assays were performed essentially as previously described (63, 64). BCE (1×10^3 cells/well) or BRE (5×10^2 cells/well) cells were seeded in 96-well plates in the culture medium (DMEM-low glucose supplemented with 10% BCS, 2 mM glutamine and antibiotics) plus testing materials with a total volume of 200 μl per well. BAE cells were plated in 96-well plates at a density of 2×10^3 cells in the culture medium (DMEM-low glucose supplemented with 1% BCS and antibiotics) plus testing material with a total volume of 200 μl per well. HRME cells were seeded at a density of 1×10^3 cells/well in gelatin-coated 96-well plates in assay medium (DMEM-low glucose supplemented with 20% FBS and antibiotics) plus testing materials to make a total volume 200 μl per well. For assays involving antibodies or small-molecule inhibitors, inhibitors or vehicle controls were first added and then test materials were added one hour later. After 6 days (unless otherwise specified), cells were incubated with alamar blue for 4 h. Fluorescence was measured at 530 nm excitation wavelength and 590 nm emission wavelength. Each experiment was carried out in duplicate/triplicate and repeated at least three times.

[2] = test system: bovine choroidal endothelial (BCE) cells; assay: BCE endothelial cell proliferation assay (alamar blue); assay type: cell-based; design: key to BCE cell growth normalized to the vehicle control group: ns, not statistically significant; settings: for effect on LIF-induced BCE cell growth: pre-incubation with inhibitor 1 hour, LIF 10 ng/ml, 6 days; for BCE cell growth normalized to the vehicle control group: day 6, n = 3
Procedure: as §1

[3] = test system: phosphorylation of STAT3, ERK and AKT in BCE cells; assay: Western blotting of LIF signaling in BCE cells; assay type: cell-based, bovine; settings: pre-incubation 1 hour (baricitinib 2 μM, cobimetinib 150 nM, BEZ235 5 nM); for effect on AKT phosphorylation: with or without LIF 10 ng/ml 15 minutes
Procedure: (§2) BCE and BAE cells were cultured in growth medium overnight. Growth medium was removed and then cells were washed twice with PBS. Recombinant human LIF was added to cells for 15 minutes, following 3-hour incubation in the following medium: DMEM-low glucose supplemented with 10% BCS, 2 mM glutamine and antibiotics for BCE cells, and DMEM-low glucose supplemented with 1% BCS and antibiotics for BAE cells. […] Cells were then lysed with RIPA lysis buffer (Life Technologies, CAT #89901) plus protease and phosphatase inhibitor cocktail (ThermoFisher Scientific CAT #78440). Protein concentrations in cell lysates were measured with the BCA assay (ThermoFisher Scientific CAT #23227). Equal amount of proteins were subjected to electrophoresis in NuPAGE 4-12% Bis-Tris gels (ThermoFisher Scientific, CAT #NW04125BOX) and then transferred onto PVDF membranes. Membranes were blocked with 5% non-fat milk in TBST at room temperature for 1 hour, incubated with primary antibodies indicated below in TBST containing 0.5% non-fat milk at 4° C. overnight then with secondary HRP-conjugated antibodies (1:2000, GE Healthcare) at room temperature for 1 h. Signals were developed with SuperSignal™ West Pico PLUS Chemiluminescent Substrate (ThermoFisher Scientific). Primary antibodies used: anti-phospho-STAT3 (Cell Signaling, CAT #9131, 1:3000), anti-STAT3 (Cell Signaling, CAT #4904, 1:3000), anti-phospho-ERK (Cell Signaling, CAT #4376, 1:5000), anti-ERK (Cell Signaling, CAT #4695, 1:5000), anti-phospho-AKT Ser473 (Cell Signaling, CAT #4060, 1:2000), anti-AKT (Cell Signaling, CAT #4691, 1:2000) and HRP-conjugated anti-beta-actin (Sigma, CAT #AC-15, 1; 10000).

[4] = test system: phosphorylation of STAT3, ERK and AKT in BAE cells; assay: Western blotting of LIF signaling in BAE cells; assay type: cell-based, bovine; settings: pretreatment 1 hour (baricitinib 2 μM, cobimetinib 150 nM, BEZ235 5 nM), LIF 10 ng/ml 15 minutes
Procedure: as §2

[5] = test system: retinal vasculature of mouse eyes; assay: Intravitreal injection of recombinant proteins in mouse eyes, retinal vessel density; assay type: in vivo; settings: after exposure to 95° C. for 2 hours
Procedure: Male C57BL/6J mice (6-8 week and P5) were anesthetized with ketamine/Xylazine cocktail. The indicated amounts of recombinant LIF (Sigma, CAT #SRP9001) in 1 μl of PBS and PBS vehicle control were injected intravitreally with a 33-gauge Hamilton syringe. Seven (for adult mice) or 3 (for neonatal mice) days after injection, animals were euthanized, eyes were then enucleated and fixed in 4% paraformaldehyde (PFA) for 15 min. Choroid-sclera complexes and retinas were separated and anti-CD31 immunofluorescence (IF) or lectin labeling was performed to evidence the vasculature by whole mount staining of both retina and choroidal tissues or flat-mounts of retina. For CD31 IF, rat anti-mouse antibody (BD Biosciences, CAT #550274) was diluted 1:100 and incubated overnight at 4° C. After 4-hour incubation with the Alexa Fluor-488-conjugated anti-rat antibody (Life Technologies, CAT #A11006), whole mounts were imaged via the 488 nm channel using Keyence Microscope BZ-X710 (Keyence Corporation, Osaka, Japan) or A1R Confocal STORM super-resolution system (Nikon). For lectin staining, Dylight-488-labeled lectin (Vector Laboratories, CAT #DL-1174) was diluted at 1:200 and images were obtained using A1R Confocal STORM super-resolution system (Nikon). For Quantification of vascular density in choroids and retina was carried out by Image J. Student's t test was used for statistical analysis. Each experiment was repeated three times with similar results each time, and each treatment group consists of 4 or 5 individual samples in every experiment. All animal experimental procedures were approved by the Institutional Animal Care and Use Committee (IACUC) of the University of California San Diego and conducted in accordance with the guidelines of the Animal Care Program (ACP).
Optical coherence tomography angiography (OCTA) imaging of the retina of adult mice was performed 7 days after LIF injection, using a 1300 nm optical coherence tomography (OCT) system developed by Dr. R. K. Wang's group at University of Washington Seattle, in agreement with previously described methodology (66). Briefly, the swept laser operated in single longitude mode with a 90 nm bandwidth centered at 1300 nm and 200 kHz A-line rate was used to scan mouse retina and to generate images of vasculature in a field of view of 1.5×1.5 mm^2. 2500 B-frames were captured at 500 cross-sections with five repeated B-frames at each cross-section. To quantify the retinal vascular density, retinal and choroidal layers in 3D structure OCT scans were separated by the hyper-reflecting retinal pigment epithelium (RPE). Then the en face maximum intensity projection was generated. The vessel density was then determined by calculating the percentages of vessel-covered area in total area of view using the ImageJ software.

Cl.Nc1cccc2c(=O)[nH]ccc12 [5-AIQ, 5-AIQ hydrochloride]
rescue of the cell death phenotype induced by LIF [1]: not able rescue

Cn1c(=O)n(-c2ccc(C(C)(C)C#N)cc2)c2c3cc(-c4cnc5ccccc5c4)ccc3ncc21 [BEZ235, reference compound]
effect on LIF-induced BCE cell growth [2]: no effect | effect on AKT phosphorylation [3]: only moderate effects | effect on LIF-induced phosphorylation of AKT [4]: effectively repressed

CCCNC(=O)[C@H]1O[C@@H]1C(=O)N[C@H](C(=O)N1CCC[C@H]1C(=O)O)[C@@H](C)CC [CA074, CA-074]
suppression of LIF-induced effects in BAE cells ([1]; even at the highest dose tested, 50 μM): not able to suppress

CCCNC(=O)[C@H]1O[C@@H]1C(=O)N[C@H](C(=O)N1CCC[C@H]1C(=O)OC)[C@@H](C)CC [CA074me, CA-074 me]
reversal of LIF-induced growth inhibition in BAE cells [1]: alleviated LIF-induced growth inhibition

O=C(NCc1ccccc1)[C@H](Cc1ccccc1)NC(=O)[C@@H]1O[C@@H]1C(=O)NCCc1ccc(O)cc1 [CAA0225]
reversal of LIF-induced growth inhibition in BAE cells [1]: repressed LIF-induced growth inhibition in BAE cells although by less extent

COC(=O)C[C@H](NC(=O)[C@@H](NC(=O)c1ccc2ccccc2n1)C(C)C)C(=O)COc1c(F)cccc1F [Q-VD-OPH, Q-VD(OMe)-OPh]
rescue of the cell death phenotype induced by LIF [1]: not able rescue

COC(=O)CC[C@H](NC(=O)[C@H](CC(=O)OC)NC(=O)OCc1ccccc1)C(=O)N[C@H](C(=O)N[C@@H](CC(=O)OC)C(=O)CF)C(C)C [Z-DEVD-fmk, Z-DEVD-FMK]
rescue of the cell death phenotype induced by LIF [1]: not able rescue

COC(=O)C[C@H](NC(=O)[C@H](C)NC(=O)[C@@H](NC(=O)OCc1ccccc1)C(C)C)C(=O)CF [Z-VAD-fmk, Z-VAD-FMK] (Cbz-Val-Ala-Asp(OMe)-CH2F)
rescue of the cell death phenotype induced by LIF [1]: not able rescue

O=C(c1ccc(F)c(F)c1Nc1ccc(I)cc1F)N1CC(O)([C@@H]2CCCCN2)C1 [cobimetinib]
effect on LIF-induced BCE cell growth [2]: minimal effects | effect on LIF-induced phosphorylation of ERK MAPK ([3]; then LIF 10 ng/ml 15 minutes): blocked | effect on LIF-induced phosphorylation of STAT3 ([3]; then LIF 10 ng/ml 15 minutes): no effects | effect on AKT phosphorylation [3]: no effects | effect on LIF-induced phosphorylation of ERK [4]: effectively repressed

IGFBP3: recombinant IGFBP3, a secreted protein previously shown to be an angiogenesis inhibitor
BAE cell growth [1]: had no effects

IL-8: recombinant human IL-8
stimulation of BCE cell growth (mitogenic activity) [2]: fail to stimulate BCE cell growth | BCE cell growth normalized to the vehicle control group ([2]; 1 ng/ml): ns | BCE cell growth normalized to the vehicle control group ([2]; 3 ng/ml): ns | BCE cell growth normalized to the vehicle control group ([2]; 10 ng/ml): ns | BCE cell growth normalized to the vehicle control group ([2]; 30 ng/ml): ns | BCE cell growth normalized to the vehicle control group ([2]; 100 ng/ml): ns | BCE cell growth normalized to the vehicle control group ([2]; 300 ng/ml): ns

PDGF-AA: recombinant human PDGF-AA
stimulation of BCE cell growth (mitogenic activity) [2]: fail to stimulate BCE cell growth | BCE cell growth normalized to the vehicle control group ([2]; 1 ng/ml): ns | BCE cell growth normalized to the vehicle control group ([2]; 3 ng/ml): ns | BCE cell growth normalized to the vehicle control group ([2]; 10 ng/ml): ns | BCE cell growth normalized to the vehicle control group ([2]; 30 ng/ml): ns | BCE cell growth normalized to the vehicle control group ([2]; 100 ng/ml): ns | BCE cell growth normalized to the vehicle control group ([2]; 300 ng/ml): ns

heat-inactivated LIF: recombinant LIF heat-inactivated by exposure to 95° C. for 2 hours
ability to promote mitogenesis in vitro ([2]; after exposure to 95° C. for 2 hours): abolished | ability to promote angiogenesis in vivo [5]: abolished
